The subject of assay [1] is HH-leukemic. Nature of the assay: Binding Intensity against CD11C+ HH-leukemic cells at 5 ug/mL. It counts as cell-based. To be noted: Homo sapiens.
Assay [2] has as its target T-cell surface glycoprotein CD4 (Homo sapiens) (UniProt P01730). The experiment in a line: Binding Intensity against CD4+ HH-leukemic cells at 5 ug/mL. The format is cell-based.
In assay [3] the target is T1, Receptor-type tyrosine-protein phosphatase C (Homo sapiens) (UniProt P08575).
T1 sequence (whole entry): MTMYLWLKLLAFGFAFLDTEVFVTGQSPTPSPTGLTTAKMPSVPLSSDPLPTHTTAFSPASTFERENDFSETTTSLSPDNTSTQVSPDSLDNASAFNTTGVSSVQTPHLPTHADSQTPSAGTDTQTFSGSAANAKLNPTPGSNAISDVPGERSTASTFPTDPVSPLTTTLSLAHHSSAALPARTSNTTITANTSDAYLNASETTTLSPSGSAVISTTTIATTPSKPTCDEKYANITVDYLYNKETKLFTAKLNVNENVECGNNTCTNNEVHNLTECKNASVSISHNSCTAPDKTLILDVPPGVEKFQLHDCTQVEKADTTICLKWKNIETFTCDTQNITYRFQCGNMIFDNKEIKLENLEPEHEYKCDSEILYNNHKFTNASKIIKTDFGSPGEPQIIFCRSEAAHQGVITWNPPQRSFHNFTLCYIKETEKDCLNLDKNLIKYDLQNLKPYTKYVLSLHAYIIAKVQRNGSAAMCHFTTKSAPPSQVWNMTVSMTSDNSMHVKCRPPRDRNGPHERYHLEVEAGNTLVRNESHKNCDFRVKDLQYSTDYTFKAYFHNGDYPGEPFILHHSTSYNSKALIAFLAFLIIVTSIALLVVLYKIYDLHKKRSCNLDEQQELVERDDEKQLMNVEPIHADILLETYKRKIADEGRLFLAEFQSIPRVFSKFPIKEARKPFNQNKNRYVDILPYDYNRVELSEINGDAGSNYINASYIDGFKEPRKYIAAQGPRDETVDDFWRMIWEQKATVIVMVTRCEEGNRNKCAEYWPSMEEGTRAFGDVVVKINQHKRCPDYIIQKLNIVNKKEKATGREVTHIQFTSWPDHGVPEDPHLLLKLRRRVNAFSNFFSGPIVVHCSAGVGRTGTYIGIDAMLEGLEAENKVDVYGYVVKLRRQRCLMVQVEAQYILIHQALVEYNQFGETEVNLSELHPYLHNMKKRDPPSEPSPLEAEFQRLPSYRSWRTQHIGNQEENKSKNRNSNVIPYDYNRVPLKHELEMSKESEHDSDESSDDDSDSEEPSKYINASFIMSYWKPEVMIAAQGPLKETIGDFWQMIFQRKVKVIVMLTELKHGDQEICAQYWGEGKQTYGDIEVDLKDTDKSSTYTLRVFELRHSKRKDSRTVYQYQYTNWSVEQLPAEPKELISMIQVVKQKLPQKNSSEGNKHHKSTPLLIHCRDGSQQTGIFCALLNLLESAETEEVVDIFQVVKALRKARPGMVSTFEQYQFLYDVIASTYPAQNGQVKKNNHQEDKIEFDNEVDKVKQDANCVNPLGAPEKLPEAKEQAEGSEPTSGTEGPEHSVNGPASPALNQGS
Nature of the assay: Binding Intensity was determined against CD45+ HH-leukemic cells at 5 ug/mL; No change. The format is cell-based.

Another assay has as its system T-cell. The experiment in a line: Cytotoxicity in HH T-lymphocytic leukemia cells. To be noted: Homo sapiens. It counts as functional, cell-based.
The target in assay [4] is T1, Receptor-type tyrosine-protein phosphatase C (Homo sapiens). The experiment in a line: Binding Intensity against CD45+ HH-leukemic cells at 5 ug/mL. It counts as cell-based.
Assay [5] has as its system HH-leukemic. Nature of the assay: Binding Intensity against CD11C+ HH-leukemic cells at 5 ug/mL. The format is cell-based. To be noted: Homo sapiens.
The target of assay [6] is T-cell surface glycoprotein CD4 (Homo sapiens) (UniProt P01730). Nature of the assay: Binding Intensity against CD4+ HH-leukemic cells at 5 ug/mL. The format is cell-based.

Values after ≈ are worked out from the molar mass of the structure shown. Active and inactive are the calls of the source. The calls are words filed in the database; no cut-off is given here.

One may read the IC50 as the concentration at which inhibition is half-maximal. Read a high IC50 as a need for much substance. Take `C/C(=N/Nc1ccc([N+](=O)[O-])cc1[N+](=O)[O-])C1C(=O)NC(=O)NC1=O`: the Binding intensity result (in the assay on HH-leukemic [1]; in assay [2]) was “No change” in each case. Further, in assay [3], the Binding intensity result was “inactive”. The compound further displayed an IC50 in the assay on T-cell of 3.5 µg/mL (≈ 9.99 µM).
With `O=[N+]([O-])c1ccc(N/N=C/c2ccc(O)cc2)cc1`, the Binding intensity result in assay [3] was “inactive”. In the assay on T-cell, this compound returned an IC50 of 5 µg/mL (≈ 19.4 µM).
Taken in the same sequence, the figures for `C/C(=N\Nc1ccc([N+](=O)[O-])cc1)c1ccc(O)cc1` were “inactive” and 4.1 µg/mL (≈ 15.1 µM).
For the compound `O=C1NC(=O)C(C(c2ccnc3ccccc23)C2C(=O)NC(=O)NC2=O)C(=O)N1`, the Binding intensity result in the assay with HH-leukemic [1] was “No change”; in assay [2], “No change”; in assay [4], 25%. In the assay on T-cell, this compound gave an IC50 of over 10 µg/mL.
As to `O=[N+]([O-])c1ccc(NN=C(c2ccc(OP(=O)(O)O)cc2)c2ccc(OP(=O)(O)O)cc2)c([N+](=O)[O-])c1`, the Binding intensity entry (with HH-leukemic [1]; in assay [2]) was “No change” throughout. For the same compound, the Binding intensity result in assay [3] is “inactive”. Besides, the IC50 in the assay with T-cell is over 10 µg/mL.
`Nc1ccc(C(=NNc2ccc([N+](=O)[O-])cc2[N+](=O)[O-])c2ccc(N)cc2)cc1`: the values for the Binding intensity result (in the assay with HH-leukemic [1]; in assay [2]; in assay [4]) were “No change”, “No change” and 25%, respectively. The same compound displayed an IC50 in the assay on T-cell of 5 µg/mL (≈ 12.7 µM).
For `CN1C(=O)C(C2(C3C(=O)N(C)C(=O)N(C)C3=O)C(=O)Nc3ccccc32)C(=O)N(C)C1=O`, the Binding intensity result (in the assay with HH-leukemic [1]; in assay [2]) was “No change” throughout. In addition, the Binding intensity entry in assay [3] is “inactive”. Also, the IC50 in the assay with T-cell is over 10 µg/mL.
In the assay with T-cell, `O=[N+]([O-])c1ccc(NN=C(c2ccc(NS(=O)(=O)c3ccccc3)cc2)c2ccc(NS(=O)(=O)c3ccccc3)cc2)c([N+](=O)[O-])c1` had an IC50 of 6 µg/mL (≈ 8.92 µM).
On to `Cl.O=C1N=C2C(=Nc3ccccc32)N1c1ccc(O)cc1`, for which the Binding intensity entry (with HH-leukemic [1]; in assay [2]) was “No change” throughout. Moreover, the Binding intensity result in assay [3] is “inactive”. Further, in the assay with T-cell, the IC50 was over 10 µg/mL.
Regarding `O=[N+]([O-])c1ccc(NN=C(c2ccc(O)cc2)c2ccc(O)cc2)c([N+](=O)[O-])c1` [SIVIFENE], the Binding intensity was 20% in the assay on HH-leukemic [5], “No change” in assay [2] and 50% in assay [4]. The compound also had an IC50 in the assay with T-cell of 3.2 µg/mL (≈ 8.11 µM).
With `CS(=O)(=O)Oc1ccc(C(=NNc2ccc([N+](=O)[O-])cc2[N+](=O)[O-])c2ccc(OS(C)(=O)=O)cc2)cc1`, the Binding intensity result (with HH-leukemic [1]; in assay [2]) was “No change” each time. In addition, the Binding intensity entry in assay [3] is “inactive”. The IC50 in the assay with T-cell is over 10 µg/mL.
`CN1C(=O)C(/C=N\Nc2ccc([N+](=O)[O-])cc2[N+](=O)[O-])C(=O)N(C)C1=O` gave an IC50 with T-cell of over 8 µg/mL.
Take `O=C(O)CC/N=C/C1C(=O)NC(=O)NC1=O`: the Binding intensity result (in the assay on HH-leukemic [1]; in assay [2]) was “No change” throughout. Further, the Binding intensity entry in assay [3] is “inactive”. Moreover, the IC50 with T-cell is over 12 µg/mL.
As to `O=C(O)CCC/N=C(\c1ccccc1)C1C(=O)NC(=O)NC1=O`, the Binding intensity result (in the assay with HH-leukemic [1]; in assay [2]) was “No change” throughout. In assay [3], the Binding intensity result was “inactive”. Moreover, the IC50 in the assay on T-cell was over 10 µg/mL.
The compound `CN1C(=O)C(C(c2ccnc3ccccc23)C2C(=O)N(C)C(=O)N(C)C2=O)C(=O)N(C)C1=O` had an IC50 in the assay on T-cell of over 10 µg/mL.
For the compound `O=C1NC(=O)C(/C=N\Nc2ccc([N+](=O)[O-])cc2)C(=O)N1`, the Binding intensity result (with HH-leukemic [1]; in assay [2]) was “No change” throughout. The Binding intensity result in assay [3] is “inactive”. Further, the IC50 with T-cell was over 6 µg/mL.
As to `O=C1NC(=O)C(/C(=N\Nc2ccc([N+](=O)[O-])cc2[N+](=O)[O-])c2ccccc2)C(=O)N1`, the Binding intensity result (in the assay on HH-leukemic [1]; in assay [2]) was “No change” throughout. For the same compound, the Binding intensity result in assay [3] was “inactive”. Also, the IC50 in the assay on T-cell is over 10 µg/mL.
Turning to `O=C1NC(=O)C(C2(C3C(=O)NC(=O)NC3=O)C(=O)Nc3ccccc32)C(=O)N1`, the Binding intensity entry (with HH-leukemic [1]; in assay [2]) was “No change” each time. In addition, in assay [3], the Binding intensity result is “inactive”. Moreover, the IC50 in the assay on T-cell is over 10 µg/mL.
`C/C(=N/Nc1ccc([N+](=O)[O-])cc1)C1C(=O)NC(=O)NC1=O`: the Binding intensity entry (in the assay on HH-leukemic [1]; in assay [2]) was “No change” throughout. For the same compound, in assay [3], the Binding intensity result was “inactive”. The IC50 with T-cell is over 10 µg/mL.
With `O=C1NC(=O)C(/C(=N\Nc2ccc([N+](=O)[O-])cc2[N+](=O)[O-])c2ccc(O)cc2)C(=O)N1`, the Binding intensity result (in the assay on HH-leukemic [1]; in assay [2]) was “No change” each time. Also, the Binding intensity entry in assay [3] is “inactive”. Moreover, in the assay with T-cell, the IC50 is over 10 µg/mL.
For `O=[N+]([O-])c1ccc(NN=C(c2ccccc2)c2ccccc2)c([N+](=O)[O-])c1`, the Binding intensity result (in the assay with HH-leukemic [1]; in assay [2]) was “No change” throughout. Moreover, the Binding intensity entry in assay [3] was “inactive”. Besides, the IC50 with T-cell is over 10 µg/mL.
`COc1ccc(C(=NNc2ccc([N+](=O)[O-])cc2[N+](=O)[O-])c2ccc(OC)cc2)cc1`: the Binding intensity (in assay [6]; in the assay with HH-leukemic [5]) was 25% throughout. For the same compound, the Binding intensity entry in assay [3] is “inactive”. In the assay on T-cell, this compound gave an IC50 of over 10 µg/mL.
As for `O=[N+]([O-])c1cc([N+](=O)[O-])c(NN=C(c2ccc(O)cc2)c2ccc(O)cc2)cc1Cl`, the Binding intensity result (with HH-leukemic [1]; in assay [2]) was “No change” throughout. Also, in assay [3], the Binding intensity entry is “inactive”. This compound registered an IC50 in the assay on T-cell of 1.5 µg/mL (≈ 3.5 µM).
For the compound `O=C(O)CCCCC/N=C/C1C(=O)NC(=O)NC1=O`, the Binding intensity result (in the assay on HH-leukemic [1]; in assay [2]) was “No change” each time. In addition, in assay [3], the Binding intensity entry was “inactive”. In the assay on T-cell, this compound registered an IC50 of over 10 µg/mL.
With `O=C(O)CCC/N=C/C1C(=O)NC(=O)NC1=O`, the Binding intensity entry in the assay with HH-leukemic [1] was “No change”; in assay [2], “No change”; in assay [4] it was 25%. This compound registered an IC50 in the assay with T-cell of 3.5 µg/mL (≈ 14.5 µM).
`C/C(=N/Nc1ccc([N+](=O)[O-])cc1[N+](=O)[O-])C1C(=O)N(C)C(=O)N(C)C1=O`: in the assay with HH-leukemic [1], the Binding intensity result was “No change”. In the assay on T-cell, this compound displayed an IC50 of 10 µg/mL (≈ 26.4 µM).
Regarding `O=[N+]([O-])c1ccccc1NN=C(c1ccc(O)cc1)c1ccc(O)cc1`, the Binding intensity result (in the assay on HH-leukemic [1]; in assay [2]) was “No change” each time. Also, the Binding intensity result in assay [3] is “inactive”. Further, the IC50 with T-cell came to 2.7 µg/mL (≈ 7.73 µM).
Take `O=C1NC(=O)C(C(c2cccnc2)C2C(=O)NC(=O)NC2=O)C(=O)N1`: the IC50 in the assay with T-cell is over 10 µg/mL.
